Measurements taken from PubChem BioAssay (NCI).
Several values for one entry are separate records, joined by “and”; a condition that tells them apart may be missing. Equal entries are not always repeated.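 Step 1: Grow cells in 96-well plates. Step 2: Expose to compound for 48 hours at 5 concentrations. Step 3: Interpolate endpoints linearly; if unreached, use highest concentration. At the GI50, growth is halved. TGI: total growth inhibition.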

Tests used:
Test in all cases: NCI anticancer screen, dose series, 48 h
BT-549 breast = test system: BT-549 breast
CCRF-CEM leukemia = test system: CCRF-CEM leukemia
DU-145 prostate = test system: DU-145 prostate
LOX IMVI melanoma = test system: LOX IMVI melanoma
NCI-H226 lung = test system: NCI-H226 lung
RPMI-8226 leukemia = test system: RPMI-8226 leukemia
RXF 393 renal = test system: RXF 393 renal
UACC-257 melanoma = test system: UACC-257 melanoma
A498 renal = test system: A498 renal
PC-3 prostate = test system: PC-3 prostate

| Structure (SMILES) | TGI (BT-549 breast) [µM] | TGI (CCRF-CEM leukemia) | TGI (DU-145 prostate) [µM] | TGI (LOX IMVI melanoma) [µM] | TGI (NCI-H226 lung) | TGI (RPMI-8226 leukemia) | TGI (RXF 393 renal) [µM] | TGI (UACC-257 melanoma) [µM] | TGI (A498 renal) | TGI (PC-3 prostate) [µM] | GI50 (A498 renal) [µM] | GI50 (CCRF-CEM leukemia) | GI50 (LOX IMVI melanoma) [µM] | GI50 (NCI-H226 lung) [µM] | GI50 (RPMI-8226 leukemia) [µM] | GI50 (RXF 393 renal) [µM] | GI50 (UACC-257 melanoma) [µM] | GI50 (BT-549 breast) [µM] | GI50 (PC-3 prostate) [µM] |
| --- | --- | --- | --- | --- | --- | --- | --- | --- | --- | --- | --- | --- | --- | --- | --- | --- | --- | --- | --- |
| O=C(NCCCN(CCCCN(CCCNC(=O)C(F)(F)F)CCCc1ccccc1)CCCc1ccccc1)C(F)(F)F | 7.34 | 18.8 µM | 3.99 | 3.89 | 27 µM | 7.97 µM | 3.31 | 3.32 | – | – | – | – | – | – | – | – | – | – | – |
| CCOC(=O)C1=C(N)Oc2ccc(Br)cc2C1C(C#N)C(=O)OCC (stereo not drawn) | – | 44.5 µM | > 100 | 33.1 | 35.3 µM | 41.6 µM | 22 | 61.7 | > 100 µM | 43.4 | – | – | – | – | – | – | – | – | – |
| CC(C)C1=C(Cc2ccccc2)C(=O)O/C1=C\c1cc(Cl)c(O)c(Cl)c1 | – | 41.5 µM | 30.3 | 34.8 | 39.5 µM | 65.6 µM | 30.5 | 32.2 | 53.1 µM | 31.1 | – | – | – | – | – | – | – | – | – |
| COc1ccc(OC)c(N2C(=O)CSC2c2cc(OC)c(OC)c(OC)c2)c1 (stereo not drawn) | > 100 | > 100 µM | > 100 | > 100 | > 100 µM | > 100 µM | – | > 100 | > 100 µM | > 100 | – | – | – | – | – | – | – | – | – |
| CCCC(O)C(NC(=O)CCl)C(=O)O (stereo not drawn) | – | > 100 µM | – | > 100 | > 100 µM | > 100 µM | > 100 | > 100 | > 100 µM | – | – | – | – | – | – | – | – | – | – |
| CN1CCN(CN2C(=O)C3C4C=CC(C3C2=O)C2C(=O)N(CN3CCN(C)CC3)C(=O)C42)CC1 (stereo not drawn) | > 100 | > 100 µM | > 31.6 | > 63 | > 100 µM | 51.4 µM | > 70.2 | > 100 | – | > 100 | – | – | – | – | – | – | – | – | – |
| CN(CCN(C)C(=S)NN)C(=S)NN | > 100 | > 100 µM | > 100 | > 100 | – | > 100 µM | – | > 100 | – | > 100 | – | – | – | – | – | – | – | – | – |
| CC(CCC#N)(CCC#N)C(=O)CC(O)(C(F)(F)F)C(F)(F)F | – | 7.84 µM | 26.1 | 8.14 | 45.3 µM | – | 5.03 | 21.1 | 40 µM | 28.4 | – | – | – | – | – | – | – | – | – |
| O=P(O)(Cc1ccccc1)c1ccccc1-c1ccccc1 | > 100 | > 100 µM | > 100 | > 100 | > 100 µM | – | > 100 | > 100 | – | > 100 | – | – | – | – | – | – | – | – | – |
| COc1ccc(CN(Cc2ccc(OC)cc2)C(=O)CC2(O)C=CCC2)cc1 (stereo not drawn) | > 100 | > 100 µM | > 100 | > 100 | > 100 µM | > 100 µM | – | > 100 | > 100 µM | > 100 | – | – | – | – | – | – | – | – | – |
| CC12CCC3C(CCC4=CC(O)CCC43C=O)C1(O)CCC2c1ccc(=O)oc1 (stereo not drawn) | – | 0.129 µM and 0.523 µM | – | – | 0.0831 µM and 0.21 µM | 0.237 µM and 0.273 µM | 0.00801 | – | 0.0418 µM and 0.113 µM | – | 0.05 | 0.0115 µM and 0.05 µM | 0.05 | 0.0866 | 0.0238 | 0.00127 | 0.05 | – | – |
| CC[C@]1(Cc2ccc(OC)c(OC)c2)[C@@H]2C[C@@H](C3OCCO3)ON2O[C@H](OC2CCCC2(c2ccccc2)c2ccccc2)[C@@H]1OC(C)=O (stereo partly drawn) | 55.9 | 60.8 µM | 83.9 | 53.9 | 36.5 µM | – | – | 43.9 | – | 63.8 | – | – | – | – | – | – | – | – | – |
| CN(C)/C=N/n1c2ccccc2c2ccccc21 | – | > 100 µM | > 100 | > 100 | > 100 µM | > 100 µM | > 100 | > 100 | > 100 µM | > 100 | – | – | – | – | – | – | – | – | – |
| COc1cc(/C=C/C(=O)O)ccc1C(=O)OCc1ccccc1 | – | > 100 µM | – | > 100 | > 100 µM | > 100 µM | > 100 | > 100 | > 100 µM | – | – | – | – | – | – | – | – | – | – |
| CC(C)(C)C(=O)OC(N)/C=C/c1ccccc1 (stereo not drawn) | > 100 | > 100 µM | – | – | > 100 µM | > 100 µM | > 100 | > 100 | > 100 µM | > 100 | – | – | – | – | – | – | – | – | – |
| CCOC(=O)NC1CN2CCC1CC2 (stereo not drawn) | – | > 100 µM | > 100 | > 100 | > 100 µM | > 100 µM | > 100 | > 100 | > 100 µM | > 100 | – | – | – | – | – | – | – | – | – |
| CCc1nc2ccc(N=NN(C)C)cc2[nH]1 | > 100 | > 100 µM | > 100 | – | > 100 µM | > 100 µM | > 100 | > 100 | – | > 100 | – | – | – | – | – | – | – | – | – |
| Cc1c(CNc2ccc(C(=O)NC(CC(=O)O)C(=O)O)cc2)ccc2nc(N)nc(N)c12 (stereo not drawn) | > 1000 | – | > 1000 | > 1000 | > 1000 µM | – | > 1000 | > 1000 | > 1000 µM | > 1000 | – | – | – | > 1000 | – | > 1000 | – | > 1000 | < 0.01 |
| O=C1NN=C2C=C(c3ccc(Cl)cc3)CC(c3cccc(Cl)c3)C12 (stereo not drawn) | > 100 | 71.7 µM | > 100 | 33.4 | 60.6 µM | 57 µM | 38.5 | 48.5 | – | > 100 | – | – | – | – | – | – | – | – | – |
| COc1cc2c(cc1O)C1C(O)C(O)C=C3CCN(C2)C31 (stereo not drawn) | – | 72.6 µM | – | 8.19 | 7.07 µM | 11.7 µM | 5.42 | 12.2 | – | – | – | – | – | – | – | – | – | – | – |
| O=C(c1cc(Cl)cc(Cl)c1)N1CCN(C(=O)c2cc(Cl)cc(Cl)c2)C1=S | 70.8 | 21.4 µM | 21.5 | 11.6 | 49.8 µM | – | 26.4 | 28.8 | 31.6 µM | 30.3 | – | – | – | – | – | – | – | – | – |
| COc1ccc(CCN=C2OCc3ccccc32)cc1OC | > 100 | > 100 µM | > 100 | > 100 | > 100 µM | – | – | > 100 | > 100 µM | > 100 | – | – | – | – | – | – | – | – | – |
| O=c1c2c(-c3ccccc3)onc2n(-c2ccccc2)c(=O)n1-c1ccccc1 | 39.5 | > 100 µM | – | > 100 | 71 µM | > 100 µM | > 100 | 53 | > 100 µM | 82 | – | – | – | – | – | – | – | – | – |
| O=C(O)c1cccnc1 | – | > 100 µM | > 100 | > 100 | > 100 µM | > 100 µM | – | > 100 | – | > 100 | – | – | – | – | – | – | – | – | – |
